The record followed here is patent US10752640B2, “Compounds active towards bromodomains” (NUEVOLUTION A/S, priority 2014, dated 2020).

As usually defined, the IC50 is the concentration that inhibits the measured activity by half.

Test [1] concerns the target BRD4 protein (Homo sapiens, UniProt O60885). In words: FRET assay, half maximal inhibitory concentration (IC50). The format is binding. Conditions: BRD4 protein 50 nM, Biotin-H4KAc4 peptide 12.5 nM; List of Classification. The procedure, abridged:
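Acetylated histone H4 peptide binding (biotin-H4KAc4, 12.5 nM final) to BRD4 (50 nM final) detected by TR-FRET between streptavidin cryptate (2.4 nM) and GST-XL665 antibody (10 nM) in KF/BSA. Buffer: HEPES pH 7.5, NaCl, CHAPS. Compound dilutions from 50 μM in 12.5% DMSO were preincubated with protein for 30 min. Variable-slope IC50.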

The target of test [2] is T1, BRD4(2), second bromodomain of BRD4 (Homo sapiens, UniProt O60885).
T1 construct: BRD4(2) for the second bromodomain of BRD4; purchased DiscoveRx Corporation (assay service); host or cells: T7 phage grown in an E. coli host derived from the BL21 strain
The test is described as follows: Bromoscan assay BRD4(2) (DiscoveRx). The format is binding. To be noted: read-out: BromoScan BRD4_2 Kd/nM. The protocol:
(§1) Bromoscan assays were run by DiscoveRx Corporation. The relevant assay names are BRD4(1) for the first bromodomain of BRD4 and BRD4(2) for the second bromodomain of BRD4. Further Bromoscan assays covering other bromodomains could be employed to establish the selectivity profile of a compound of interest. To run the Bromoscan assay, a T7 phage strain displaying the relevant bromodomain was grown in parallel in 24-well blocks in an E. coli host derived from the BL21 strain. E. coli were grown to log-phase and infected with T7 phage from a frozen stock (multiplicity of infection=0.4) and incubated with shaking at 32° C. until lysis (90-150 minutes). The lysates were centrifuged (5,000×g) and filtered (0.2 μm) to remove cell debris. Streptavidin-coated magnetic beads were treated with biotinylated small molecule or acetylated peptide ligands for 30 minutes at room temperature to generate affinity resins for bromodomain assays. The liganded beads were blocked with excess biotin and washed with blocking buffer (SeaBlock (Pierce), 1% BSA (bovine serum albumin), 0.05% Tween 20, 1 mM DTT (dithiothreitol)) to remove unbound ligand and to reduce non-specific phage binding. Binding reactions were assembled by combining bromodomains, liganded affinity beads, and test compounds in 1× binding buffer (17% SeaBlock, 0.33×PBS, 0.04% Tween 20, 0.02% BSA, 0.004% Sodium azide, 7.4 mM DTT). Test compounds were prepared as 1000× stocks in 100% DMSO and subsequently diluted 1:10 in monoethylene glycol (MEG) to create stocks at 100× the screening concentration (resulting stock solution is 10% DMSO/90% MEG). The compounds were then diluted directly into the assays such that the final concentration of DMSO and MEG were 0.1% and 0.9%, respectively. All reactions were performed in polystyrene 96-well plates in a final volume of 0.135 ml. The assay plates were incubated at room temperature with shaking for 1 hour and the affinity beads were washed with wash buffer (1×PBS, 0.05% Tween 20). The beads were then re-suspended in elution buffer (lx PBS, 0.05% Tween 20, 2 μM nonbiotinylated affinity ligand) and incubated at room temperature with shaking for 30 minutes. The bromodomain concentration in the eluates was measured by qPCR (quantitative real-time polymerase chain reaction).

In test [3] the target is T2, BRD4(1), first bromodomain of BRD4 (Homo sapiens, UniProt O60885).
T2 construct: BRD4(1) for the first bromodomain of BRD4; purchased DiscoveRx Corporation (assay service); host or cells: T7 phage grown in an E. coli host derived from the BL21 strain
The test is described as follows: Bromoscan assay BRD4(1) (DiscoveRx). The class given is binding. To be noted: for Kd: first bromodomain of BRD4, read-out: BromoScan BRD4_1 Kd/nM; for BromoScan BRD4_2/1: ratio of Kd BRD4_2 to BRD4_1, selectivity for BRD4_1 over BRD4_2. The protocol:
as §1

For test [4], the system named is MV-4-11 tumor cells. The test is described as follows: Cell viability assay (CellTiter-Glo). The format is cell-based. To be noted: Homo sapiens, MV4-11; MV-4-11 cells, 72 hours with compound. The protocol: Grow MV-4-11 tumor cells (ATCC CRL-9591) in suspension at 37° C. in a humidified atmosphere (5% CO2, 95% air, IMDM (Iscove's Modified Dulbecco's Medium) medium supplemented with 10% FBS (fetal bovine serum)) Seed cells at a density of 10.000 cells per well of a flat-bottomed 96 well plate in 50 μL of medium. After 24 hours, add 50 μL of test compound or DMSO control from a pre-generated compound dilution series in medium. After an additional 72 hours, add 100 μL of pre-mixed CellTiter-Glo reagent (Promega G7570) to each well, shake for two minutes to allow cell lysis followed by 10 minutes of incubation at room temperature without shaking. Read luminescence on an Envision reader (Perkin Elmer). The inhibition of cell viability (IC) can be expressed as follows:
[formula] IC data can be analyzed using GraphPad Prism, and IC50 data can be obtained using non-linear regression curve fit using log(compound) vs response (variable slope). The effect of compound on the viability of other cell lines can be assayed under similar conditions, taking into account the growth requirement of the individual cell line.
(ATP-based viability assays read luminescence as a measure of living cells.)

Test [5] has as its system IL-12p40. The test is described as follows: Cytokine release inhibition assay: LPS-induced cytokine release from human PBMCs. The class given is cell-based. Conditions: PBMC, LPS 1 ng/mL, 18 h, read-out: LPS IC50 IL12p40 μM. The protocol: Cytokine release inhibition assay: LPS-induced cytokine release from human peripheral blood mononuclear cells (PBMCs)
200,000 PBMCs were seeded per well of a 96-well plate in 160 μL of medium. Afterwards, 20 μL of ten times concentrated working dilutions of compound or DMSO control were added per well. Cells were pre-incubated with compounds for 1 h at 37° C., 5% CO2, 95% humidity and 20 μL of ten times concentrated LPS was added to cells (Sigma L4391, final concentration 1 ng/mL). Following 18 h incubation at 37° C., 5% CO2, 95% humidity, plates were centrifuged for 10 minutes at 300×g. 150 μL of supernatants were collected for IL-12p40 determination. The concentration of IL-12p40 in supernatants was determined by sandwich ELISA (enzyme-linked immunosorbent assay) using capture and detection antibodies according to the manufacturer's instructions (R&D Systems DY1240). Data can be analyzed using GraphPad Prism, and IC50 data can be obtained using non-linear regression curve fit using log(compound) vs response (variable slope).

Molecules are shown by their SMILES. A value given as a limit tells only on which side of the number the result lay.

For the compound `Cc1cc(O)nc2ccc(NC(=O)c3cc(S(=O)(=O)N4CCCCC4)ccc3N3CCOCC3)cc12` [Compound-67, N-(2-hydroxy-4-methyl-6-quinolyl)-2-morpholino-5-(1-piperidylsulfonyl)benzamide], the results for the IC50 in test [1] and in test [4] were less than 200 nM and 1200 nM, respectively. Also, the Kd was found to be 1180 nM in test [2] and 6.2 nM in test [3]. Moreover, in test [3], the “BromoScan BRD4_2/1” value amounted to 190.9.
The matching figures for `Cc1cc(O)nc2c(C)cc(NC(=O)c3cc(S(=O)(=O)N(C)C)ccc3N3CCCC3)cc12` [Compound-107, 5-(dimethylsulfamoyl)-N-(2-hydroxy-4,8-dimethyl-6-quinolyl)-2-pyrrolidin-1-yl-benzamide]: less than 200 nM, 700 nM, 28 nM, 3.6 nM and 7.8.
Consider `Cc1cc(O)nc2ccc(NC(=O)c3cc(C4(N5CCOCC5)CC4)ccc3N3CCCC3)cc12` [Compound-113, N-(4-methyl-2-oxo-1,2-dihydroquinolin-6-yl)-5-(1-morpholinocyclopropyl)-2-(pyrrolidin-1-yl)benzamide], for which the IC50 was less than 200 nM in test [1] and 600 nM in test [4]. Moreover, the Kd in test [2] amounted to 190 nM; in test [3] it was 16 nM. Also, the “BromoScan BRD4_2/1” value in test [3] was 11.9.
Take `Cc1cc(O)nc2ccc(NC(=O)c3cc(CN4CCN(C)CC4)ccc3N3CCCC3)cc12` [compound 1, N-(2-hydroxy-4-methylquinolin-6-yl)-5-((4-methylpiperazin-1-yl)methyl)-2-(pyrrolidin-1-yl)benzamide]: the IC50 is 300 nM in test [5], less than 200 nM in test [1] and 600 nM in test [4]. The Kd was 330 nM in test [2] and 13 nM in test [3]. For the same compound, the “BromoScan BRD4_2/1” value in test [3] is 25.4.
